The values that follow come from patent US9073855B2, “BCL-2 selective apoptosis-inducing agents for the treatment of cancer and immune diseases” (AbbVie Inc., priority 2008, dated 2015).

The target of experiment [1] is GST-Bcl-XL (Homo sapiens, UniProt Q07817). Briefly: TR-FRET binding assay, GST-Bcl-XL with F-Bak peptide probe. To be noted: TR-FRET Binding Affinity. The method, boiled down:
(§1)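 Compounds were serially diluted in DMSO from a 50 μM starting solution (2× the starting concentration; 10% DMSO). Plates were incubated for 3 h at room temperature, and TR-FRET was read with 340/35 nm excitation and emission at 520/525 nm (F-Bak) and 495/510 nm (Tb antibody). Ki values were calculated using Wang's competitive-binding equation.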

In experiment [2] the target is GST-Bcl-2 (Homo sapiens, UniProt P10415). Briefly: TR-FRET binding assay, GST-Bcl-2 with F-Bak peptide probe. Particulars: for Ki: TR-FRET Binding Affinity; for Binding selectivity ratio (Bcl-XL Ki/Bcl-2 Ki): TR-FRET, Bcl-XL Ki divided by Bcl-2 Ki. The essentials:
as §1

Chain of GST-Bcl-2 (P10415 whole entry): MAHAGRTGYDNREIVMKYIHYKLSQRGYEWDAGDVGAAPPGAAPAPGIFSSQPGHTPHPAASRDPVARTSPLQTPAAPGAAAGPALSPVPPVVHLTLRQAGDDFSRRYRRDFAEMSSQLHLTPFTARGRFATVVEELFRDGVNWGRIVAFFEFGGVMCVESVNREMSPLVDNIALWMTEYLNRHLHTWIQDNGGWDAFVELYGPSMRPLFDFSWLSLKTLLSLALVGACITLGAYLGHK
Chain of GST-Bcl-XL (Q07817 whole entry): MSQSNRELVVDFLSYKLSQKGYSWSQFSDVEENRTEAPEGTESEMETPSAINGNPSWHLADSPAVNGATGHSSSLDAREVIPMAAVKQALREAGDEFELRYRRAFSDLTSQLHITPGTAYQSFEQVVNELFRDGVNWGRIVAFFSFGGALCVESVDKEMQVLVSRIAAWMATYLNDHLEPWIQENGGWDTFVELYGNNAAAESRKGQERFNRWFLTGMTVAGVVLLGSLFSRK

In the case of `CC1(C)CCC(CN2CCN(c3ccc(C(=O)NS(=O)(=O)c4cnc(OCC5(F)CCOCC5)c(F)c4)c(Oc4cccc5[nH]cnc45)c3)CC2)=C(c2ccc(Cl)cc2)C1` [Example 442, 2-(1H-benzimidazol-4-yloxy)-4-(4-{[2-(4-chlorophenyl)-4,4-dimethylcyclohex-1-en-1-yl]methyl}piperazin-1-yl)-N-({5-fluoro-6-[(4-fluorotetrahydro-2H-pyran-4-yl)methoxy]pyridin-3-yl}sulfonyl)benzamide], the results for the Ki in experiment [1] and in experiment [2] were 33600 pM and less than 10 pM, respectively.
Turning to `CC1(C)CCC(CN2CCN(c3ccc(C(=O)NS(=O)(=O)c4cnc(OCC5(F)CCOCC5)c(Cl)c4)c(Oc4cccc5[nH]cnc45)c3)CC2)=C(c2ccc(Cl)cc2)C1` [Example 443, 2-(1H-benzimidazol-4-yloxy)-N-({5-chloro-6-[(4-fluorotetrahydro-2H-pyran-4-yl)methoxy]pyridin-3-yl}sulfonyl)-4-(4-{[2-(4-chlorophenyl)-4,4-dimethylcyclohex-1-en-1-yl]methyl}piperazin-1-yl)benzamide], the inhibition constant (Ki) in experiment [1] is 19400 pM; in experiment [2], less than 10 pM.
`CC1(C)CCC(CN2CCN(c3ccc(C(=O)NS(=O)(=O)c4cnc(OC[C@@H]5CCN(C(CF)CF)C5)c(Cl)c4)c(Oc4cccc5[nH]ncc45)c3)CC2)=C(c2ccc(Cl)cc2)C1` [Example 444, N-{[5-chloro-6-({(3R)-1-[2-fluoro-1-(fluoromethyl)ethyl]pyrrolidin-3-yl}methoxy)pyridin-3-yl]sulfonyl}-4-(4-{[2-(4-chlorophenyl)-4,4-dimethylcyclohex-1-en-1-yl]methyl}piperazin-1-yl)-2-(1H-indazol-4-yloxy)benzamide]: the Ki in experiment [1] turned out to be 81500 pM; in experiment [2], 112 pM. The “Binding selectivity ratio (Bcl-XL Ki/Bcl-2 Ki)” value (“Binding selectivity ratio” below) in experiment [2] is recorded as 727.6.
Take `CC1(C)CCC(CN2CCN(c3ccc(C(=O)NS(=O)(=O)c4cnc(OC[C@@H]5CCN(CC(F)F)C5)c(Cl)c4)c(Oc4cccc5[nH]ncc45)c3)CC2)=C(c2ccc(Cl)cc2)C1` [Example 445, N-[(5-chloro-6-{[(3R)-1-(2,2-difluoroethyl)pyrrolidin-3-yl]methoxy}pyridin-3-yl)sulfonyl]-4-(4-{[2-(4-chlorophenyl)-4,4-dimethylcyclohex-1-en-1-yl]methyl}piperazin-1-yl)-2-(1H-indazol-4-yloxy)benzamide]: in experiment [1], the inhibition constant (Ki) worked out at 13600 pM. Further, in experiment [2], the affinity corresponds to a Ki of 28 pM and the “Binding selectivity ratio” value was 484.2.
The corresponding values for `CO[C@H]1CC[C@H](CNc2ccc(S(=O)(=O)NC(=O)c3ccc(N4CCN(CC5=C(c6ccc(Cl)cc6)CC(C)(C)CC5)CC4)cc3Oc3cccc4[nH]ncc34)cc2[N+](=O)[O-])CC1` [Example 446, Trans-4-(4-{[2-(4-chlorophenyl)-4,4-dimethylcyclohex-1-en-1-yl]methyl}piperazin-1-yl)-2-(1H-indazol-4-yloxy)-N-[(4-{[(4-methoxycyclohexyl)methyl]amino}-3-nitrophenyl)sulfonyl]benzamide] are 19300 pM, 38 pM and 508.4.
On to `CC1(C)CCC(CN2CCN(c3ccc(C(=O)NS(=O)(=O)c4ccc(OCC5COCCO5)c([N+](=O)[O-])c4)c(Oc4cccc5[nH]ncc45)c3)CC2)=C(c2ccc(Cl)cc2)C1` (centres unmarked) [Example 447, 4-(4-{[2-(4-chlorophenyl)-4,4-dimethylcyclohex-1-en-1-yl]methyl}piperazin-1-yl)-N-{[4-(1,4-dioxan-2-ylmethoxy)-3-nitrophenyl]sulfonyl}-2-(1H-indazol-4-yloxy)benzamide], for which the results for the Ki in experiment [1] and in experiment [2] were 65800 pM and 28 pM, respectively.
On to `CC1(C)CCC(CN2CCN(c3ccc(C(=O)NS(=O)(=O)c4cnc(NC5CCN(C6CC6)CC5)c(Cl)c4)c(Oc4cccc5[nH]ncc45)c3)CC2)=C(c2ccc(Cl)cc2)C1` [Example 448, N-({5-chloro-6-[(1-cyclopropylpiperidin-4-yl)amino]pyridin-3-yl}sulfonyl)-4-(4-{[2-(4-chlorophenyl)-4,4-dimethylcyclohex-1-en-1-yl]methyl}piperazin-1-yl)-2-(1H-indazol-4-yloxy)benzamide], for which the Ki is 14600 pM in experiment [1] and 5 pM in experiment [2]. For the same molecule, the “Binding selectivity ratio” value in experiment [2] is on record as 3119.3.
In turn, `CC1(C)CCC(CN2CCN(c3ccc(C(=O)NS(=O)(=O)c4cnc(NC5CCN(C6CC6)CC5)c(Cl)c4)c(Oc4cccc5[nH]cnc45)c3)CC2)=C(c2ccc(Cl)cc2)C1` [Example 449, 2-(1H-benzimidazol-4-yloxy)-N-({5-chloro-6-[(1-cyclopropylpiperidin-4-yl)amino]pyridin-3-yl}sulfonyl)-4-(4-{[2-(4-chlorophenyl)-4,4-dimethylcyclohex-1-en-1-yl]methyl}piperazin-1-yl)benzamide] registered a Ki in experiment [1] of 17800 pM. Besides, in experiment [2], the Ki came to 240 pM and the “Binding selectivity ratio” value turned out to be 74.4.
The corresponding values for `CC1(C)CCC(CN2CCN(c3ccc(C(=O)NS(=O)(=O)c4ccc(NCC5COCCO5)c([N+](=O)[O-])c4)c(Oc4cccc5[nH]cnc45)c3)CC2)=C(c2ccc(Cl)cc2)C1` (centres unmarked) [Example 450, 2-(1H-benzimidazol-4-yloxy)-4-(4-{[2-(4-chlorophenyl)-4,4-dimethylcyclohex-1-en-1-yl]methyl}piperazin-1-yl)-N-({4-[(1,4-dioxan-2-ylmethyl)amino]-3-nitrophenyl}sulfonyl)benzamide] are 32100 pM, 299 pM and 107.3.
`CC1(C)CCC(CN2CCN(c3ccc(C(=O)NS(=O)(=O)c4ccc(NC5CCN(C6CC6)CC5)c([N+](=O)[O-])c4)c(Oc4cccc5[nH]cnc45)c3)CC2)=C(c2ccc(Cl)cc2)C1` [Example 451, 2-(1H-benzimidazol-4-yloxy)-4-(4-{[2-(4-chlorophenyl)-4,4-dimethylcyclohex-1-en-1-yl]methyl}piperazin-1-yl)-N-({4-[(1-cyclopropylpiperidin-4-yl)amino]-3-nitrophenyl}sulfonyl)benzamide]: the inhibitory constant (Ki) in experiment [1] is 3600 pM; in experiment [2], less than 10 pM. Moreover, the “Binding selectivity ratio” value in experiment [2] is 359.9.
The molecule `CC1(C)CCC(CN2CCN(c3ccc(C(=O)NS(=O)(=O)c4ccc(N[C@H]5CC[C@H](N6CCOCC6)CC5)c([N+](=O)[O-])c4)c(Oc4cccc5[nH]cnc45)c3)CC2)=C(c2ccc(Cl)cc2)C1` [Example 452, Trans-2-(1H-benzimidazol-4-yloxy)-4-(4-{[2-(4-chlorophenyl)-4,4-dimethylcyclohex-1-en-1-yl]methyl}piperazin-1-yl)-N-({4-[(4-morpholin-4-ylcyclohexyl)amino]-3-nitrophenyl}sulfonyl)benzamide] came in with an inhibitory constant (Ki) in experiment [1] of 6000 pM. Besides, in experiment [2], the Ki was less than 10 pM and the “Binding selectivity ratio” value is recorded as 600.4.
The corresponding values for `CN1CCN(Nc2ccc(S(=O)(=O)NC(=O)c3ccc(N4CCN(CC5=C(c6ccc(Cl)cc6)CC(C)(C)CC5)CC4)cc3Oc3cccc4[nH]cnc34)cc2[N+](=O)[O-])CC1` [Example 453, 2-(1H-benzimidazol-4-yloxy)-4-(4-{[2-(4-chlorophenyl)-4,4-dimethylcyclohex-1-en-1-yl]methyl}piperazin-1-yl)-N-({4-[(4-methylpiperazin-1-yl)amino]-3-nitrophenyl}sulfonyl)benzamide] are 3630 pM, less than 10 pM and 363.0.
Turning to `CN1CCC(CNc2ccc(S(=O)(=O)NC(=O)c3ccc(N4CCN(CC5=C(c6ccc(Cl)cc6)CC(C)(C)CC5)CC4)cc3Oc3cccc4[nH]cnc34)cc2[N+](=O)[O-])CC1` [Example 454, 2-(1H-benzimidazol-4-yloxy)-4-(4-{[2-(4-chlorophenyl)-4,4-dimethylcyclohex-1-en-1-yl]methyl}piperazin-1-yl)-N-[(4-{[(1-methylpiperidin-4-yl)methyl]amino}-3-nitrophenyl)sulfonyl]benzamide], the Ki stood at 18900 pM in experiment [1] and 26 pM in experiment [2].
In turn, `COCCOCCN1CCO[C@H](CNc2ccc(S(=O)(=O)NC(=O)c3ccc(N4CCN(CC5=C(c6ccc(Cl)cc6)CC(C)(C)CC5)CC4)cc3Oc3cccc4[nH]cnc34)cc2[N+](=O)[O-])C1` [Example 455, 2-(1H-benzimidazol-4-yloxy)-4-(4-{[2-(4-chlorophenyl)-4,4-dimethylcyclohex-1-en-1-yl]methyl}piperazin-1-yl)-N-({4-[({(2R)-4-[2-(2-methoxyethoxy)ethyl]morpholin-2-yl}methyl)amino]-3-nitrophenyl}sulfonyl)benzamide] displayed a Ki in experiment [1] of 619 pM. Besides, in experiment [2], the Ki stood at 4 pM and the “Binding selectivity ratio” value is 139.4.
Take `CC1(C)CCC(CN2CCN(c3ccc(C(=O)NS(=O)(=O)c4ccc(NCC5CCC(F)(F)CC5)c([N+](=O)[O-])c4)c(Oc4cccc5[nH]cnc45)c3)CC2)=C(c2ccc(Cl)cc2)C1` [Example 456, 2-(1H-benzimidazol-4-yloxy)-4-(4-{[2-(4-chlorophenyl)-4,4-dimethylcyclohex-1-en-1-yl]methyl}piperazin-1-yl)-N-[(4-{[(4,4-difluorocyclohexyl)methyl]amino}-3-nitrophenyl)sulfonyl]benzamide]: the Ki is 540 pM in experiment [1] and less than 10 pM in experiment [2]. The “Binding selectivity ratio” value in experiment [2] turned out to be 54.0.
The corresponding values for `CC(=O)N1CCOC(CNc2ccc(S(=O)(=O)NC(=O)c3ccc(N4CCN(CC5=C(c6ccc(Cl)cc6)CC(C)(C)CC5)CC4)cc3Oc3cccc4[nH]cnc34)cc2[N+](=O)[O-])C1` (centres unmarked) [Example 457, N-[(4-{[(4-acetylmorpholin-2-yl)methyl]amino}-3-nitrophenyl)sulfonyl]-2-(1H-benzimidazol-4-yloxy)-4-(4-{[2-(4-chlorophenyl)-4,4-dimethylcyclohex-1-en-1-yl]methyl}piperazin-1-yl)benzamide] are 331000 pM, 45 pM and 7413.6.
